Measured values published in article PMC8789054, “The nucleotide messenger (p)ppGpp is an anti-inducer of the purine synthesis transcription regulator PurR in Bacillus” (Nucleic Acids Research, 2021).
Values belong to the molecule of their own block, whether it stands above or below them.

Tests used:
PurR Y102A/F205A = biological target: T1, PurR Y102A/F205A (Bacillus subtilis, UniProt P37551, Y102A/F205A); assay: inhibition of PurR-DNA probe binding by PRPP (Supplementary Figure S15); assay type: biochemical
T1 sequence (P37551 1-285 Y102A/F205A): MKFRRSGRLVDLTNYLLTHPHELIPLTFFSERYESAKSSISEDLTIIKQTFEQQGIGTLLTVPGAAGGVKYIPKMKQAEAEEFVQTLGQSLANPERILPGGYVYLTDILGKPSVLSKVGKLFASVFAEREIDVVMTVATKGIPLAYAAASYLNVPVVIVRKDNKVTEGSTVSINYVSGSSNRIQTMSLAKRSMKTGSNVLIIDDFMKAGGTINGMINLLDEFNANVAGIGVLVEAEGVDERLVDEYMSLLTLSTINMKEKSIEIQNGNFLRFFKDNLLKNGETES

PurR Y102A/K207A = biological target: T2, PurR Y102A/K207A (Bacillus subtilis, UniProt P37551, Y102A/K207A); assay: as above; assay type: biochemical
T2 sequence (P37551 1-285 Y102A/K207A): T1 sequence (P37551 1-285 Y102A/F205A)

PurR [1] = biological target: T3, PurR (Bacillus subtilis, UniProt P37551); assay: X-ray co-crystal structure ([…] Å); DRaCALA with […]-ppGpp; assay type: binding
T3 construct: untagged B. subtilis PurR

PurR [2] = biological target: T3, PurR; assay: DRaCALA with […]-pppGpp; assay type: binding
[3] = biological target: the molecule itself; assay: crystal structure; untagged PurR at 20 mg/ml with 1 mM ppGpp, hanging drop vapor diffusion, 0.1 M MES pH 6.5, 18% PEG 1500, room temperature; space group P1, three PurR dimers in the asymmetric unit; 2.45 Å

Molecule: O=P(O)(O)OC[C@H]1O[C@H](OP(=O)(O)OP(=O)(O)O)[C@H](O)[C@@H]1O [PRPP]
inhibition of PurR-DNA probe binding by PRPP (Supplementary Figure S15) (PurR Y102A/F205A): yet still bind to DNA probes and their binding to DNA is still inhibited by PRPP | inhibition of PurR-DNA probe binding by PRPP (Supplementary Figure S15) (PurR Y102A/K207A): yet still bind to DNA probes and their binding to DNA is still inhibited by PRPP

Molecule: Nc1nc2c(ncn2[C@@H]2O[C@H](COP(=O)(O)OP(=O)(O)O)[C@@H](OP(=O)(O)OP(=O)(O)O)[C@H]2O)c(=O)[nH]1 [ppGpp]
Kd (PurR [1]): ~4.4 µM

Kd (PurR [2]): ~4.4 µM
Molecule: Nc1nc2c(ncn2[C@@H]2O[C@H](COP(=O)(O)OP(=O)(O)OP(=O)(O)O)[C@@H](OP(=O)(O)OP(=O)(O)O)[C@H]2O)c(=O)[nH]1 [pppGpp]

B1: Bacillus subtilis purine synthesis transcription regulator PurR (untagged) (natural protein, B. subtilis)
chain: T1 sequence (P37551 1-285 Y102A/F205A)
notes: PurR, purine synthesis transcription regulator of Bacillus subtilis; Crystallised with 1 mM ppGpp; three dimers in the asymmetric unit; also called B. subtilis PurR; purine repressor PurR; source: E. coli BL21 T7 Express lacIq, purified (HisTrap FF, TEV cleavage, second HisTrap FF, Sephacryl S-200 gel filtration)
binding result [3]: binds
